Biological target: T1, human RXFP1 (Homo sapiens, UniProt Q9HBX9)
T1 construct: expressed in transfected cells
T1 sequence (Q9HBX9 1-757): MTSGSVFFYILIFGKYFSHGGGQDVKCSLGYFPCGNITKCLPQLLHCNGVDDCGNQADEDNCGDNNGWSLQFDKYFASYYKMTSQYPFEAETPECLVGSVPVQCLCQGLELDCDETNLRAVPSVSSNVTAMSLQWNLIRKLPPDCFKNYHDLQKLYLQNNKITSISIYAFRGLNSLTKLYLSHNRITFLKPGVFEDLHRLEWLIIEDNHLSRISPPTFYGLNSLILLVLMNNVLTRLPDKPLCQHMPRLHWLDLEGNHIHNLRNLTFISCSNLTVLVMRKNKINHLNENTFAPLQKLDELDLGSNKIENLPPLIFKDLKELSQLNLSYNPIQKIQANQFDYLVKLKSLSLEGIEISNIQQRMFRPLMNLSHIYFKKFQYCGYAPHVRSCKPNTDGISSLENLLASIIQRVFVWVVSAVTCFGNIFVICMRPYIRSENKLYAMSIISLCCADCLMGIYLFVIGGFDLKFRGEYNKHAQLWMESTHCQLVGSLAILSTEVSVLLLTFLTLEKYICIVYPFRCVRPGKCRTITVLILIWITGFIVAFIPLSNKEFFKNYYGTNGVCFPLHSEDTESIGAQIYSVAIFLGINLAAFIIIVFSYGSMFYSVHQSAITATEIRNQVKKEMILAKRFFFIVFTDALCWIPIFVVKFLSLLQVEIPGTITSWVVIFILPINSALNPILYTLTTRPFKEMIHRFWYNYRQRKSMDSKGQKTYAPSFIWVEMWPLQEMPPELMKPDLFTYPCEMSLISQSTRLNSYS
Assay: RXFP1 cAMP assay (hRXFP1 HEK293 cAMP assay, HTRF)
Format: cell-based
Details: HEK293 cells stably expressing human RXFP1, 30 min at room temperature, read-out: cAMP hRXFP1 HEK293 Assay EC50
In short: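 Potency and activity come from a four-parameter logistic fit of cAMP against compound concentration, tested from 0.010 nM up to 50 μM. The assay uses HEK293 cells stably expressing human RXFP1, incubated 30 min at ambient temperature with phosphodiesterase inhibitor IBMX present.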

| Structure (SMILES) | EC50 [nM] |
| --- | --- |
| COc1ccc(-c2cc(C(=O)O)ccc2F)cc1C(=O)N[C@@H]1C2CCC(/C2=C/C2CC2)[C@@H]1C(=O)N[C@@H](C)c1ccccc1C(F)(F)F (stereo partly drawn) [compound 262] | 139 |
| COCCN1CCCC1c1ccc(OC)c(C(=O)N[C@@H]2C3CCC(C3=CC3CC3)[C@@H]2C(=O)Nc2ccc(F)c(C(F)(F)F)c2)c1 (stereo partly drawn) [compound 666] | 373 |
| COc1ccc(-c2cnc3c(cnn3CC(=O)O)c2)cc1C(=O)N[C@@H]1C2CCC(/C2=C/C(F)(F)F)[C@@H]1C(=O)Nc1ccc(F)c(C(F)(F)F)c1 (stereo partly drawn) [compound 317] | 31 |
| COCCOc1ccc(-c2cc(C(=O)O)ccc2F)cc1C(=O)N[C@@H]1C2CCC(/C2=C/C2CC2)[C@@H]1C(=O)Nc1ccc(F)c(C(F)(F)F)c1 (stereo partly drawn) [compound 200] | 37 |
| CCCCNC(=O)[C@@H]1[C@H](NC(=O)c2cc(C3=NOC4COCC34)ccc2OC)[C@@H]2CC[C@H]1/C2=C/C1CC1 (stereo partly drawn) [compound 614] | 138 |
| COc1ccc(C2=NOC(CO)C2)cc1C(=O)N[C@@H]1C2CCC(/C2=C/C2CCC2)[C@@H]1C(=O)Nc1ccc(F)c(C(F)(F)F)c1 (single isomer, unassigned) [Example 379] | 26 |
| COc1ccc(N2CCC(NC(=O)C3CCOCC3)C2)cc1C(=O)N[C@@H]1C2CCC(/C2=C/C(F)(F)F)[C@@H]1C(=O)Nc1ccc(F)c(C(F)(F)F)c1 (single isomer, unassigned) [compound 337] | 2080 |
| CC/C=C1\C2CCC1[C@H](C(=O)Nc1ccc(F)c(C(F)(F)F)c1)[C@@H]2NC(=O)c1cc(-c2cc(C(=O)NC)ccc2F)ccc1OC (stereo partly drawn) [compound 156] | 11 |
| COc1ccc(C2=NOC(C3(O)CC3)C2)cc1C(=O)N[C@H]1[C@@H](C(=O)NCC(C)(C)C)[C@H]2CC[C@@H]1/C2=C\C1CC1 (stereo partly drawn) [compound 618] | 155 |
| COc1cc(C2CC2)c(C2=NOC3COCC23)cc1C(=O)N[C@H]1[C@@H](C(=O)Nc2ccc(F)c(C(F)(F)F)c2)[C@H]2CC[C@@H]1/C2=C\C1CC1 (single isomer, unassigned) [compound 695] | 836 |
| COc1ccc(-c2cc(C(=O)O)ccc2F)cc1C(=O)N[C@@H]1C2CCC(/C2=C/C2CC2)[C@@H]1C(=O)Nc1cccc(-c2csnn2)c1 (stereo partly drawn) [compound 271] | 664 |
| COC(=O)N1CCN(c2ccc(OC)c(C(=O)NC3C4CCC(C4=Cc4ccccc4)C3C(=O)Nc3ccc(F)c(C(F)(F)F)c3)c2)CC1 (stereo not drawn) [Example 125] | 240 |
| COC(=O)C1CC2ON=C(c3ccc(OC)c(C(=O)N[C@H]4[C@@H](C(=O)Nc5ccc(F)c(C(F)(F)F)c5)[C@H]5CC[C@@H]4/C5=C\C4CC4)c3)C2C1 (stereo partly drawn) [compound 512] | 15.7 |
| O=C(N[C@H]1[C@@H](C(=O)Nc2ccc(F)c(C(F)(F)F)c2)[C@H]2CC[C@@H]1/C2=C\C1CC1)c1cccc(C2=NOC3CC(O)CC23)c1 (stereo partly drawn) [compound 628] | 177 |
| COc1ccccc1NC(=O)OC(c1ccc(F)c(-c2ccc(OC)c(C(=O)N[C@@H]3C4CCC(/C4=C/C4CC4)[C@@H]3C(=O)Nc3ccc(F)c(C(F)(F)F)c3)c2)c1)C(F)(F)F (stereo partly drawn) [compound 225] | 3 |
| COc1ccc(C2=NOC3(CCOCC3)C2)cc1C(=O)N[C@@H]1C2CCC(/C2=C/C2CC2)[C@@H]1C(=O)Nc1ccc(F)c(C(F)(F)F)c1 (stereo partly drawn) [compound 402] | 70 |
| COc1ccc(C2=NOC(CCO)C2)cc1C(=O)N[C@@H]1C2CCC(/C2=C/C2CC2)[C@@H]1C(=O)Nc1ccc(F)c(C(F)(F)F)c1 (stereo partly drawn) [compound 398] | 37 |
| COc1ccc(N2CCC(NC(=O)C3CCOCC3)C2)cc1C(=O)N[C@@H]1C2CCC(/C2=C/C(F)(F)F)[C@@H]1C(=O)Nc1ccc(F)c(C(F)(F)F)c1 (single isomer, unassigned) [compound 336] | 1930 |
| COc1ccc(C2=NOC3(CO)CCCC23)cc1C(=O)N[C@H]1[C@@H](C(=O)Nc2ccc(F)c(C(F)(F)F)c2)[C@H]2CC[C@@H]1/C2=C\C1CC1 (single isomer, unassigned) [compound 616] | 141 |
| CC(C)=C1C2CCC1[C@H](C(=O)Nc1ccc(F)c(C(F)(F)F)c1)[C@@H]2NC(=O)c1cc(-c2cc(C(=O)O)ccc2F)ccc1N(C)C (stereo partly drawn) [Example 107] | 180 |
| COc1ccc(-c2cc([C@@H](C)O)on2)cc1C(=O)N[C@H]1[C@@H](C(=O)Nc2ccc(F)c(C(F)(F)F)c2)[C@H]2CC[C@@H]1/C2=C\C1CC1 [compound 500] | 11 |
| COc1ccc(C2=NOC3CC(O)CC23)cc1C(=O)N[C@H]1[C@@H](C(=O)Nc2ccc(F)c(C(F)(F)F)c2)[C@H]2CC[C@@H]1/C2=C\C(F)(F)F (stereo partly drawn) [compound 543] | 30.5 |
| COc1ccc(C2=NOC3CC(C(C)(C)O)CC23)cc1C(=O)N[C@H]1[C@@H](C(=O)Nc2ccc(F)c(C(F)(F)F)c2)[C@H]2CC[C@@H]1/C2=C\C1CC1 (single isomer, unassigned) [compound 464] | 3.2 |
| COc1ccc(C2=NOC3COCC23)cc1C(=O)N[C@H]1[C@@H](C(=O)N[C@@H]2CCc3ccccc32)[C@H]2CC[C@@H]1/C2=C\C1CC1 (stereo partly drawn) [compound 577] | 70.7 |
| COc1ccc(C2=NOC3COCC23)cc1C(=O)N[C@H]1[C@@H](C(=O)NC2CCOC(C)(C)C2)[C@H]2CC[C@@H]1/C2=C\C1CC1 (single isomer, unassigned) [compound 679] | 563 |
| COc1cc(F)c(F)cc1C(=O)N[C@@H]1C2CCC(/C2=C\c2ccccc2)[C@]1(F)C(=O)Nc1ccc(F)c(C(F)(F)F)c1 (stereo partly drawn) [Example 52] | 3000 |

Second part, the compound after the results:

| EC50 [nM] | Structure (SMILES) |
| --- | --- |
| 4.7 | COc1ccc(C2=NO[C@H]3CC(CO)C[C@@H]23)cc1C(=O)N[C@H]1[C@@H](C(=O)Nc2ccc(F)c(C(F)(F)F)c2)[C@H]2CC[C@@H]1/C2=C\CC(C)(C)C (stereo partly drawn) [compound 841] |
| 1190 | COc1ccc(C2CCCN2)cc1C(=O)N[C@@H]1C2CCC(C2=CC2CC2)[C@@H]1C(=O)Nc1ccc(F)c(C(F)(F)F)c1 (stereo partly drawn) [compound 703] |
| 2.4 | COc1ccc(C2=NO[C@H]3C[C@H](CO)C[C@@H]23)cc1C(=O)N[C@H]1[C@@H](C(=O)Nc2ccc(F)c(C(F)(F)F)c2)[C@H]2CC[C@@H]1/C2=C\CC(O)C(F)(F)F (stereo partly drawn) [compound 820] |
| 5 | COc1ccc(C2=NOC3CC(NC(=O)CO)CC23)cc1C(=O)N[C@@H]1C2CCC(/C2=C/C2CC2)[C@@H]1C(=O)Nc1ccc(F)c(C(F)(F)F)c1 (stereo partly drawn) [compound 743] |
| 0.9 | COc1ccc(C2=NOC3CC(C(C)O)CC23)cc1C(=O)N[C@H]1[C@@H](C(=O)Nc2ccc(F)c(C(F)(F)F)c2)[C@H]2CC[C@@H]1/C2=C\C1CC1 (stereo partly drawn) [compound 843] |
| 4.4 | COc1ccc(C2=NO[C@H]3C[C@H](CO)CN23)cc1C(=O)N[C@H]1[C@@H](C(=O)Nc2ccc(F)c(C(F)(F)F)c2)[C@H]2CC[C@@H]1/C2=C\CC(C)C [compound 838] |
| 1090 | COCC1(CNC(=O)[C@@H]2[C@H](NC(=O)c3cc(C4=NOC5COCC45)ccc3OC)[C@@H]3CC[C@H]2/C3=C/C2CC2)CC1 (stereo partly drawn) [compound 701] |
| 1360 | COc1ccc(C2=NC[C@@H]3CCCN23)cc1C(=O)N[C@H]1[C@@H](C(=O)Nc2ccc(F)c(C(F)(F)F)c2)[C@H]2CC[C@@H]1/C2=C\C1CC1 [compound 708] |
| 3.6 | COc1ccc(-c2ccc(C(=O)O)cc2F)cc1C(=O)N[C@H]1[C@@H](C(=O)Nc2ccc(F)c(C(F)(F)F)c2)[C@H]2CC[C@@H]1/C2=C\C1CC(F)(F)C1 [compound 919] |
| 5 | COc1c(F)cc(C2=NOC3CC(CO)CC23)cc1C(=O)N[C@H]1[C@@H](C(=O)N[C@H](C)C23CC(C2)C3)[C@H]2CC[C@@H]1/C2=C\C1CC1 (stereo partly drawn) [compound 776] |
| 4.1 | COc1ccc(-c2cc(C(NC(=O)C3CCOCC3)C(=O)O)ccc2F)cc1C(=O)N[C@H]1[C@@H](C(=O)Nc2ccc(F)c(C(F)(F)F)c2)[C@H]2CC[C@@H]1/C2=C\CCC(F)(F)F (stereo partly drawn) [compound 940] |
| 3.8 | COc1ccc(C2=NOC3CC(O)(C(F)(F)F)CC23)cc1C(=O)N[C@H]1[C@@H](C(=O)Nc2ccc(F)c(C(F)(F)F)c2)[C@H]2CC[C@@H]1/C2=C\C1CC1 (stereo partly drawn) [compound 864] |
| 4 | COc1ccc(-c2cc(C3=NOC4CC(O)CC34)ccc2F)cc1C(=O)N[C@H]1[C@@H](C(=O)Nc2ccc(F)c(C(F)(F)F)c2)[C@H]2CC[C@@H]1/C2=C\C1CC1 (stereo partly drawn) [compound 909] |
| 5 | COc1ccc(-c2cnc3n2CC(O)CC3)cc1C(=O)N[C@H]1[C@@H](C(=O)Nc2ccc(F)c(C(F)(F)F)c2)[C@H]2CC[C@@H]1/C2=C\C1CC1 (stereo partly drawn) [compound 755] |
| 2.5 | COc1ccc(C2=NO[C@H]3CC(CO)C[C@@H]23)cc1C(=O)N[C@H]1[C@@H](C(=O)Nc2ccc(F)c(C(F)(F)F)c2)[C@H]2CC[C@@H]1/C2=C\CC(C)C (stereo partly drawn) [compound 822] |
| 4.5 | COc1ccc(C2=NOC3CC(C(C)O)CC23)cc1C(=O)N[C@H]1[C@@H](C(=O)Nc2ccc(F)c(C(F)(F)F)c2)[C@H]2CC[C@@H]1/C2=C\C1CC1 (stereo partly drawn) [compound 855] |

— patent US20250221966A1, “RXFP1 AGONISTS” (BRISTOL-MYERS SQUIBB COMPANY, priority 2021, published 2025)
